Source: patent publication US20120003298A1, “METHODS FOR INDUCING AN IMMUNE RESPONSE” (priority 2010, published 2012)

What was measured:
[1] = tested on: AY-27 rat bladder cancer cell-line; test: Orthotopic rat bladder cancer model, intravesical instillation; settings: of 14 per group
human whole blood = test: Cytokine secretion in human whole blood assay, ELISA; format: cell-based; settings: whole blood, 6 hours
Procedure: Before drawing the blood, the compounds were added to 96 well round bottom plates in a 10× diluted sample at 20 ul. The compounds were diluted in RPMI media without serum but with antibiotics. Antibiotics were added at a 10× concentration. After drawing the blood, the whole blood sample was gently mixed to obtain a homogeneous sample, and 180 ul was added to each well.
All compounds were setup in concentrations at 0-0.01-0.03-0.1-0.5-2.0-10.0 micromolar as the final concentration. Vehicle control was DMSO control, where we used the highest concentration used for the compounds. After addition of blood, all plates were gently agitated at 37° C. and 5% CO2 until harvest.
For the 6 hours time point, the plate was centrifuged 500×g. Supernatant (SN) was transferred to a tube and centrifuged at 10.000×g for 10 min to get rid of cells and protein aggregates. The clarified supernatant was frozen at −80° C. until analysis.
The SN was removed to another tube and centrifuged at 10.000×g for 10 min. to get rid of aggregates etc. The clarified supernatant was frozen at −80° C. until analysis.
Concentrations of cytokines were determined by ELISA from R&D Systems. The results were analyzed in Graph Pad Prism in order to prepare dose-response
curves, and for determination of EC50 values. FACS analysis was made by using Becton-Dickinson FACSDiva software and subsequently illustrated in Graph Pad Prism.

[2] = tested on: AY-27 rat bladder cancer cell-line; settings: in vivo
[3] = In vivo pharmacodynamics, serum cytokines after intravenous injection; design: species or system mouse; settings: 200 nmol intravenously
Procedure: For in vivo pharmacodynamic experiments, 6- to 8-week old C57BU6 mice were intravenously injected with the unconjugated and phospholipid-conjugated TLR7 agonists (200 nmol). Sera were separated and kept at −20° C. until use. The levels of cytokines in the sera were measured by Luminex bead microassay. The minimum detection levels of IL-6 and TNF-alpha were 5 pg/mL and 10 pg/mL, respectively.

[4] = Intrabladder application, serum cytokines (Luminex) and histology; format: in vivo, mouse
Procedure: Female C57BU6 mice were anesthetized with ketamine/xylazine. The 50 microliter formulated compounds were intravesically administered for twenty minutes at each treatment. The treatment schedule and doses are in Table 35 and 36, respectively. The levels of cytokines (IL-6, IL-12, and TNF-alpha) were determined by Luminex assay. Paraffin sections were prepared and H & E staining performed.

CYP2E1 = biological target: T1, CYP2E1 (Homo sapiens, UniProt P05181); test: Fluorescent High Throughput P450 assay, CYP2E1; format: biochemical
T1 construct: purchased Gentest
T1 sequence (P05181 whole entry): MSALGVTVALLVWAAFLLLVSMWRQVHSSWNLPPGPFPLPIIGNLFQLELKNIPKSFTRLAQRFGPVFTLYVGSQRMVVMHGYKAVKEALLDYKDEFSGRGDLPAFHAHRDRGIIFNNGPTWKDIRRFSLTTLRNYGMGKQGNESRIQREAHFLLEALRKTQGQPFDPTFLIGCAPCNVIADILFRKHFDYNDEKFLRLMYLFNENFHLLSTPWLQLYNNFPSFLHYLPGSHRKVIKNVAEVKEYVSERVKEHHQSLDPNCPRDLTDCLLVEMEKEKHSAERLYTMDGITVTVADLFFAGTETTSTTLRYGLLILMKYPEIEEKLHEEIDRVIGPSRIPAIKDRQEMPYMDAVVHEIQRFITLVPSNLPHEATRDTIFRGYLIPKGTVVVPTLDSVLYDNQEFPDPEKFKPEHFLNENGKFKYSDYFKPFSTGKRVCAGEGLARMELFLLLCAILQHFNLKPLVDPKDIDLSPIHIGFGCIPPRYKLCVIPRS
Procedure: (§1) Inhibition of the P450 isoforms was measured in specific assays using specific substrates that become fluorescent upon CYP metabolism. Compounds, dissolved in ACN (acetonitrile) (CYP2E1, CYP2C8, CYP2B6, CYP3A5) or DMSO (all remaining isoforms), were tested in duplicate (n=2) in concentration-response curves (eight concentrations) in a 96-well plate containing incubation/NADPH regenerating buffer. Specific isoenzymes and substrates were added and incubated at 37° C. Reactions were terminated at different times, depending on the assays, and plates read on a Fluoroskan Ascent at the appropriate emission/excitation wavelengths. Concentration-response curves performed in duplicate for known inhibitors for each isoenzyme were tested in every assay as positive control.

CYP3A4 = biological target: T2, CYP3A4 (Homo sapiens, UniProt P08684); test: Fluorescent High Throughput P450 assay, CYP3A4; format: biochemical
T2 construct: purchased Gentest
T2 sequence (P08684 whole entry): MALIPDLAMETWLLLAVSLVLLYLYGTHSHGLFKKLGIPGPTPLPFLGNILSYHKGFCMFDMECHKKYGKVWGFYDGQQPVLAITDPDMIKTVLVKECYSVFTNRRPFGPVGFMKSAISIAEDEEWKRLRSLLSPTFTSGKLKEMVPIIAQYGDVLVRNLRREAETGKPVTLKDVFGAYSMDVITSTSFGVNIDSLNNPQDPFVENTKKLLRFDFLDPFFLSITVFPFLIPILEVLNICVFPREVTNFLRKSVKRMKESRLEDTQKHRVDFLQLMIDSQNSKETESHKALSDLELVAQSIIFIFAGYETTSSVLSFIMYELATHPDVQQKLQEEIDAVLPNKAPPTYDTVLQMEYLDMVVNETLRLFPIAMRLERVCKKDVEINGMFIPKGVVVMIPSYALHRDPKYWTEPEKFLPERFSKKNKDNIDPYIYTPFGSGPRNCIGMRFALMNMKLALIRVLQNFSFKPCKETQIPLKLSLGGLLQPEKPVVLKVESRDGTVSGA
Procedure: as §1

[5] = tested on: 73 primary molecular targets; test: Radioligand binding assay among 73 primary molecular targets; settings: SC12 tested at 30 microM
NFκB-bla Raw 264.7 Cells = test: NFκB activation in NFκB-bla Raw 264.7 cells; format: cell-based, mouse; settings: FIG. 2
Procedure: NFκB-bla Raw 264.7 Cells were purchased from Life Technologies Corporation (Carlsbad, Calif.). […] Drugs were dissolved and diluted in DMSO to obtain an initial stock solution (10 or 50 mM). Drugs were then serially diluted (usually 1:3 or 1:5) in DMSO. The stock solutions were further diluted in Assay Medium and added to cells already in each well.

[6] = Solubility observations in the text
Inv-Myc mice = test: Mouse skin cancer model (Inv-Myc mice, Tamoxifen induction), topical creams; format: in vivo
Procedure: The mice used are essentially discussed in Pelengaris, S., et al., (1999) Molecular Cell 3:565-77. Activation of c-myc in this model, such as by the application of Tamoxifen, leads to increased keratinocyte proliferation, reversible epidermal hyperplasia, and papillomatosis changes.
Sex-matched 8-15 week old Inv-Myc mice were used for the study. The mice were shaved on the back 24 hours before the daily Tamoxifen induction (1 mg/200 microliters ethanol, day 0 to 7) to an area 5×3 cm^2. […] Mice were sacrificed on day 10. […] Sera were collected when mice were sacrificed and 2 hours after the first cream application in some instances.

RAW.264 cells = test: Intracellular uptake in RAW.264 cells, LC-MS; format: in vitro ADME; settings: 10 microM
Procedure: 5×10^6 RAW.264 cells were adhered overnight in 10 cm tissue culture dishes. […] […] Supernatant (2 ml) and cells (pellets) were collected by trypsinization and frozen at […] for subsequent analysis by LC-MS.

[7] = tested on: plasmacytoid CD11c−/CD123+DCs; test: FACS, plasmacytoid DC activation in whole blood; format: cell-based, human; settings: 24 hours; 0.1 and 0.5 uM
Procedure: (§2) The FACS analysis for donor 1 and donor 2 was made on another day than donor 3. The compound concentrations were as follows:
(§3) B cell activation: 2 and 10 uM mDC/pDC: 0.1 and 0.5 uM
(§4) The FACS analysis was used to identify whether the test compounds could induce activation of B cells, and two different subsets of dendritic cells, namely the myeloid CD11c+/CD123− DCs and the plasmacytoid CD11c−/CD123+DCs. The following markers were studied to identify the activation status of the different subsets:
The FACS staining was performed according to the manufacturer's instructions. Lysis of red blood cells was performed before FACS staining in order to minimize auto-florescence. To include as many B cells and DCs in the study as possible the FACS analyses were performed on 500,000 cells in total for each staining. A P1 gate was set only to include relevant cells on FSC vs. SSC (see FIGS. 12-15). The results of the individual analysis were present as Mean Fluorescence Intensity (MFI) values, for certain activation marker in a given gate setting, represent the actual cell subset. The isotype background values have been used to set the gates so that a maximum at 2% of unspecific stained cells could be found in the positive gates.
The analysis of pDCs was based on HLA-DR+/CD11c−/CD123+ cells, thus all analyzed cells were included in the HLA-DR+ (P3) gate and CD11c−/CD123+(Q1) gate.

HLA-DR+/CD20+ B cells = test: FACS, B cell activation in whole blood; format: cell-based, human; settings: 24 hours; 2 and 10 uM
Procedure: as §2, §3, §4
B-cells: HLA-DR/CD20/CD40
The FACS staining was performed according to the manufacturer's instructions. Lysis of red blood cells was performed before FACS staining in order to minimize auto-florescence. To include as many B cells and DCs in the study as possible the FACS analyses were performed on 500,000 cells in total for each staining. […] The results of the individual analysis were present as Mean Fluorescence Intensity (MFI) values, for certain activation marker in a given gate setting, represent the actual cell subset. The isotype background values have been used to set the gates so that a maximum at 2% of unspecific stained cells could be found in the positive gates.
The analysis of expression of the activation marker CD40 on B cells was made on double positive HLA-DR (MHC class II) (P4 gate) and CD20 cells (B cell marker) (P8 gate).

[8] = tested on: recombinant antigens from Plasmodium falciparum and Mycobacterium ulcerans; test: Pilot immunization study with adjuvanted recombinant protein antigens; format: in vivo, mouse
Procedure: A pilot immunization study was conducted using Compound A and SC12 adjuvanted protein antigens. The immunization experiments were performed with two recombinant proteins expressed in E. coli. One antigen was derived from the malaria parasite Plasmodium falciparum and the other one from Mycobacterium ulcerans, which cause the ulcerative skin disease Buruli ulcer.

## CCCCCCCCCCCC(=O)OCC(COP(=O)(O)OCCNC(=O)c1ccc(Cn2c(=O)[nH]c3c(N)nc(OCCOC)nc32)cc1)OC(=O)CCCCCCCCCCC (stereo not drawn) [SC12]
[1]
  Number of rat bladders Tumor free: 6
  Number of rat bladders with pT2 Tumor: 7
  Number of rat bladders with pTa Tumor: 1
  Tumor free, share of group: 42.9%
  pT2 Tumor, share of group: 50.0%
  pTa Tumor, share of group: 7.1%
Human whole blood
  IL-10 production: no IL-10 production was seen
[2]
  toxicity: No signs of toxicity
[3]
  time course of cytokine induction: lower but sustained cytokine induction than the free ligand
[3]; C57BL/6 mice
  serum proinflammatory cytokine levels: induced similar levels of the proinflammatory cytokines IL-6, IL-12 and TNF-alpha
[4]; day 0, 2 hour time point, intravesical about 207 nmoles in 50 μl
  serum IL-12: elevated levels of IL-12
[4]; day 7
  bladder histology, cell infiltration: immune cell infiltration in the bladder
CYP2E1
  inhibition of CYP2E1: moderate inhibition
CYP3A4
  inhibition of CYP3A4: moderate inhibition
[5]
  binding to receptors associated with pain-related syndromes (e.g. adenosine and sodium channel): did not bind this type of receptors
NFκB-bla Raw 264.7 Cells
  activity in NFkB RAW cells: more active than the free pharmocophore
[6]; P450 assays, especially in ACN
  solubility: low solubility
[6]; toxicity test, two highest concentrations (5000 and 1580 micrograms/plate), end of incubation
  precipitation in bacterial mutation assay: Precipitation
Inv-Myc mice; 2 hours after the first administration
  serum IL-6: less IL-6 than Aldara
Inv-Myc mice; Experiment 1
  Ki67 positive cells: decreased Ki67 positive cells
  gross appearance of skin: redness and scaling
Inv-Myc mice; Experiment 2
  gross appearance of skin: smooth and soft
  skin thickness: decreased development of skin thickness
Inv-Myc mice; cream every other day, days 0-8
  acanthosis: reduction in acanthosis
Inv-Myc mice; mouse, in vivo
  eczematous reaction: less eczematous reaction than Aldara (Imiquimod) cream
RAW.264 cells; Incubation 1 hours
  Intracellular Concentration % of total: 18.5 % of total
RAW.264 cells; Incubation 6 hours
  Intracellular Concentration % of total: 20.6 % of total
RAW.264 cells; Incubation 18 hours
  Intracellular Concentration % of total: 21.4 % of total
[7]
  CD80 expression in pDCs (MFI, words): slightly higher CD80 expression than compound A
  CD86 expression in pDCs (MFI, words): tendency to induce higher CD86 expression than compound A
HLA-DR+/CD20+ B cells
  CD40 expression on B cells (MFI, words): induced CD40 expression in donor 1 and donor 2 in all tested concentrations
[8]; subcutaneous, 10 nMol
  local side effects: No local side effects
[8]; three subcutaneous immunizations, 20 micrograms antigen with 10 nMol adjuvant
  IgG responses against the target antigens: developed IgG responses
